SMILES strings stand for the structures. ≈ marks a conversion by molar mass, not a printed value. Like-named read-outs stand apart in the source and are kept apart here. Bridge positions count the residues as written; N and C are the ends. Peptide text beside a SMILES is read from it.

The test system of one assay is MRSA NCTC 12493 biofilm. In kind it is cell-based, methicillin-resistant Staphylococcus aureus. Particulars: for MBIC: lowest concentration inhibiting at least 90% of biofilm formation; for MBEC: minimum concentration eradicating at least 99% of the biofilm. From the text: (§1) The minimum bactericidal concentration (MBC) is defined as the lowest antibiotic concentration that kills 99.9% of the inoculum. The minimum biofilm inhibitory concentration (MBIC) is the lowest concentration that inhibits at least 90% of the formation of biofilm. The minimum biofilm eradication concentration (MBEC) is the minimum concentration that can eradicate at least 99% of the biofilm. In addition to the eight microorganisms described previously, this experiment was also applied to P. aeruginosa (ATCC 27853, ATCC BAA-2108, P. aeruginosa 01, P. aeruginosa 14).

Another assay deals with MRSA (NCTC 12493). Put plainly: microbe, parasite or virus in culture. The assay is classed as cell-based, methicillin-resistant Staphylococcus aureus. Particulars: planktonic MRSA NCTC 12493; for MIC: 37 °C, nine repeats of three independent experiments; for MBC: lowest concentration killing 99.9% of inoculum. An excerpt:
(§2) The minimum inhibitory concentration (MIC) is the minimum concentration of an antimicrobial agent that prevents the visible growth of a bacterium or bacteria. The MIC is an important piece of data for research on new antimicrobial agents and helps in the effective selection of antibiotics to improve the success of treatment. The minimum bactericidal concentration (MBC) is defined as the lowest antibiotic concentration that kills 99.9% of the inoculum. This study mainly contained eight different microorganisms, which were Staphylococcus aureus (ATCC 6538), methicillin-resistant Staphylococcus aureus (NCTC 12493), Enterococcus faecalis (NCTC 12697), Escherichia coli (ATCC 8739), Klebsiella pneumoniae (ATCC 43816), Pseudomonas aeruginosa (ATCC CRM 9027), Acinetobacter baumannii (BAA 747), and Candida albicans (ATCC 10231). The bacteria were incubated in the compatible medium at 37 °C overnight.

The test system of assay [1] is E. faecalis NCTC 12697 biofilm. The assay is classed as cell-based, Enterococcus faecalis. Particulars: for MBIC: lowest concentration inhibiting at least 90% of biofilm formation; for MBEC: minimum concentration eradicating at least 99% of the biofilm.
Text: as §1

A further assay concerns A. baumannii (BAA 747). Kind of assay: microbe, parasite or virus in culture. The assay is classed as cell-based, Acinetobacter baumannii. Particulars: planktonic A. baumannii BAA 747; for MIC: 37 °C, nine repeats of three independent experiments; for MBC: lowest concentration killing 99.9% of inoculum.
Text: as §2

A further assay concerns G+ Bacteria. Kind of assay: Geometric mean of MICs and TI value. In kind it is cell-based. Particulars: geometric mean of MICs against tested Gram-positive bacteria. As to the method: The therapeutic potential of antimicrobial agents was valued based on their selectivity toward bacteria in reference to erythrocytes. The TI value was calculated from the results of antibacterial and haemolysis experiments of peptides using the following formula:TI value = HC10 / GMMICs.
GM was the geometric mean of MICs against all tested bacteria.

For `CC[C@H](C)[C@H](NC(=O)[C@H](CCCCN)NC(=O)[C@H](CCCCN)NC(=O)CNC(=O)[C@H](C)NC(=O)CNC(=O)[C@H](CC(C)C)NC(=O)[C@@H](NC(=O)CNC(=O)[C@H](CO)NC(=O)[C@H](CC(C)C)NC(=O)[C@H](CC(C)C)NC(=O)CN)C(C)C)C(=O)N[C@H](C(=O)N[C@H]1CSSC[C@@H](C(=O)O)NC(=O)[C@H](CCCNC(=N)N)NC(=O)CNC(=O)[C@H](CO)NC(=O)[C@H](CC(C)C)NC(=O)CNC1=O)C(C)C` [Nigrosin-6VL] (H-GLLSGVLGAGKKIVCGLSGRC-OH; disulfide 15-21), in the assay on MRSA NCTC 12493 biofilm, the MBIC is on record as >128/>128 µM and the MBEC is listed as >128/>128 µM. Besides, in the assay on MRSA (NCTC 12493), the MIC is > 128 µM and the MBC was > 128 µM. Besides, in assay [1], the MBIC is recorded as >128/>128 µM and the MBEC is given as >128/>128 µM. Moreover, in the assay with A. baumannii (BAA 747), the MIC was > 128 µM and the MBC was > 128 µM. The “GM (geometric mean of MICs), G+ Bacteria” value in the assay on G+ Bacteria was determined as 101.59 µM.

As for `CC[C@H](C)[C@H](NC(=O)[C@H](CCCCN)NC(=O)[C@H](CCCCN)NC(=O)CNC(=O)[C@H](C)NC(=O)[C@H](CCCNC(=N)N)NC(=O)[C@H](CC(C)C)NC(=O)[C@@H](NC(=O)[C@H](C)NC(=O)[C@H](CCCNC(=N)N)NC(=O)[C@H](CC(C)C)NC(=O)[C@H](CC(C)C)NC(=O)CN)C(C)C)C(=O)N[C@H](C(=O)N[C@H]1CSSC[C@@H](C(=O)O)NC(=O)[C@H](CCCNC(=N)N)NC(=O)CNC(=O)[C@H](CO)NC(=O)[C@H](CC(C)C)NC(=O)CNC1=O)C(C)C` [Peptide 2170-2R] (H-GLLRAVLRAGKKIVCGLSGRC-OH; disulfide 15-21), the values for the MBIC (in the assay on MRSA NCTC 12493 biofilm; in assay [1]) were 4 µM and 32 µM, respectively. In addition, the MBEC in the assay with MRSA NCTC 12493 biofilm is listed as 16 µM; in assay [1], > 128 µM. Further, the MIC against MRSA (NCTC 12493) turned out to be 16 µM (≈ 34.7 µg/mL); with A. baumannii (BAA 747) (read-out: MIC), 4 µM (≈ 8.67 µg/mL). Besides, the MBC against MRSA (NCTC 12493) was 16 µM (≈ 34.7 µg/mL); in the assay on A. baumannii (BAA 747) (read-out: MBC), 8 µM (≈ 17.3 µg/mL).

Source of the values: publication PMC11274128, “Modification and Synergistic Studies of a Novel Frog Antimicrobial Peptide against Pseudomonas aeruginosa Biofilms” (Antibiotics, 2024).
